According to ChEMBL document CHEMBL1201862, “PubChem BioAssay data set” (2004):
Calls of active or inactive are those of the source. Rule as the data show it, for most assays here: actives have a measured IC50 and inactives only a lower limit.

Key:
[1] = inhibitors of intracellular T. cruzi replication, confirmation, NIH3T3 host cells, beta-gal luminescence (AID 2044); assay type: functional, cell-based;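 also: intracellular parasites grown in NIH/3T3 mouse fibroblasts as host cells; luminescent beta-galactosidase reporter signal from transgenic T. cruzi replicating inside host cells; inhibitors lower the luminescence signal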
[2] = target: T1, Ubiquitin-conjugating enzyme E2 N (Homo sapiens, UniProt P61088); assay type: functional;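 also: Dose-response confirmation in a TR-FRET assay detecting UBC13-driven polyubiquitin chain formation, inhibition measured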
T1 sequence (P61088 whole entry): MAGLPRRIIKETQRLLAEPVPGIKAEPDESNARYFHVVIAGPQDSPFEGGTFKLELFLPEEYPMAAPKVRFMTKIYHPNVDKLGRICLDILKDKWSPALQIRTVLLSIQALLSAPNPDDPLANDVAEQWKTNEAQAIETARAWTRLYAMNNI

Bcl-2-related protein A1 = target: T2, Bcl-2-related protein A1 (Mus musculus, UniProt Q07440); assay: Bfl-1 inhibitors blocking BH3 peptide binding, confirmation, biochemical, TR-FRET, mouse Bfl-1 (AID 621);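 also: TR-FRET binding of GST-Bfl-1 to FITC-labelled Bid peptide via terbium antibody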
T2 sequence (Q07440 whole entry): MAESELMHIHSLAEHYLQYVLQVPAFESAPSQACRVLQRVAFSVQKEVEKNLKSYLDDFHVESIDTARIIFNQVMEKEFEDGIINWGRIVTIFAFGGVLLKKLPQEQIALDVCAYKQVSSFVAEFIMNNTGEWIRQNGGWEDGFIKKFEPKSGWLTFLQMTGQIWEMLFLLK

[3] = target: T3, Mannose-6-phosphate isomerase (Homo sapiens, UniProt P34949); assay: human PMI inhibitors, high substrate, primary screen, biochemical, fluorescence intensity, high mannose 6-phosphate (AID 1220)
T3 sequence (P34949 whole entry): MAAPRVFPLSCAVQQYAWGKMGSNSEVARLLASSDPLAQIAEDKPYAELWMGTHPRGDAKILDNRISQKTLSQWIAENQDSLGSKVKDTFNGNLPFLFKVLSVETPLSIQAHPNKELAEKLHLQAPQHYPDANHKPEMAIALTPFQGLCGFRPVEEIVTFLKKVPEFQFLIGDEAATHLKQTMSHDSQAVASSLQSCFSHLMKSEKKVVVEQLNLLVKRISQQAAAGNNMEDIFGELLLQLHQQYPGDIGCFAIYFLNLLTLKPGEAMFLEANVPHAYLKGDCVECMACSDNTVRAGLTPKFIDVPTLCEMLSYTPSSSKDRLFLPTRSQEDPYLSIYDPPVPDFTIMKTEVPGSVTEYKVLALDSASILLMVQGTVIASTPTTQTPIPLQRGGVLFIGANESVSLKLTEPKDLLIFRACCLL

[4] = target: T4, Histone-lysine N-methyltransferase NSD2 (Homo sapiens, UniProt O96028); assay type: biochemical
T4 sequence (O96028 whole entry): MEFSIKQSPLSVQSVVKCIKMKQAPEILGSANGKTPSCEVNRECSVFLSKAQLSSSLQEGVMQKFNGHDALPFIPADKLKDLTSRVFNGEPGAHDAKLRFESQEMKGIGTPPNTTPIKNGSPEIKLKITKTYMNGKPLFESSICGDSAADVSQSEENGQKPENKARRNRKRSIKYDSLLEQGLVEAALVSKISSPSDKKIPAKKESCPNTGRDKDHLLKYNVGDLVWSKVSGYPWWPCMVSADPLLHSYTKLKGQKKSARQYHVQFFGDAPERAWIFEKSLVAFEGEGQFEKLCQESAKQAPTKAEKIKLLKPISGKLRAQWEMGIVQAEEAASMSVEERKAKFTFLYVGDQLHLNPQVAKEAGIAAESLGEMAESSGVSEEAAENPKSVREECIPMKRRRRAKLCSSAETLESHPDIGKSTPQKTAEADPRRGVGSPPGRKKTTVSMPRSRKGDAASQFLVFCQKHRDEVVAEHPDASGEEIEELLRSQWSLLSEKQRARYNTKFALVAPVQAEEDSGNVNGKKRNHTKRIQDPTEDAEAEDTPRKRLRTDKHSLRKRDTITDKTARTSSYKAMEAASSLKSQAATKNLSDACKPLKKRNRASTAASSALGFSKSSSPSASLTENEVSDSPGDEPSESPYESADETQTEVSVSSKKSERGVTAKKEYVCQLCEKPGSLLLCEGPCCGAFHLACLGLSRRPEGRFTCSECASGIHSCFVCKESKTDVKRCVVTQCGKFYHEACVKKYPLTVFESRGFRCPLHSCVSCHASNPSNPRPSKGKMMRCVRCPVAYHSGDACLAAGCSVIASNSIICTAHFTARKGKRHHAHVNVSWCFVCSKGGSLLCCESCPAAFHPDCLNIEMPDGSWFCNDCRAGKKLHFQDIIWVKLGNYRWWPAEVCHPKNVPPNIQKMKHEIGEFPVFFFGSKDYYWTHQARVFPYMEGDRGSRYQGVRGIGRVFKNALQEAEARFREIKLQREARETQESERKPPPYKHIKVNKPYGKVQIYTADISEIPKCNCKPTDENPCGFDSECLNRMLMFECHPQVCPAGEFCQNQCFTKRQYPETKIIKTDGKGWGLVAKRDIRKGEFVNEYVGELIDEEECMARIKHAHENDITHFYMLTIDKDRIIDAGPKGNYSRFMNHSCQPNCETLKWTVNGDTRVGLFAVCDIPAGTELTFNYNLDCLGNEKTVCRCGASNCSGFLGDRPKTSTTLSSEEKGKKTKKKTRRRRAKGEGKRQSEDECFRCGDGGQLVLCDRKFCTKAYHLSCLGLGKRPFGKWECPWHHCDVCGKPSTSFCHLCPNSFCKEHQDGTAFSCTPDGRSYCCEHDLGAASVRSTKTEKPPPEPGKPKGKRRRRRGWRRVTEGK

[5] = target: Voltage-gated N-type calcium channel alpha-1B subunit/Amyloid beta A4 precursor protein-binding family A member 1 (Homo sapiens, UniProt Q00975+Q02410); assay type: protein assay
Sequence of Voltage-gated N-type calcium channel alpha-1B subunit/Amyloid beta A4 precursor protein-binding family A member 1 (Q00975 whole entry): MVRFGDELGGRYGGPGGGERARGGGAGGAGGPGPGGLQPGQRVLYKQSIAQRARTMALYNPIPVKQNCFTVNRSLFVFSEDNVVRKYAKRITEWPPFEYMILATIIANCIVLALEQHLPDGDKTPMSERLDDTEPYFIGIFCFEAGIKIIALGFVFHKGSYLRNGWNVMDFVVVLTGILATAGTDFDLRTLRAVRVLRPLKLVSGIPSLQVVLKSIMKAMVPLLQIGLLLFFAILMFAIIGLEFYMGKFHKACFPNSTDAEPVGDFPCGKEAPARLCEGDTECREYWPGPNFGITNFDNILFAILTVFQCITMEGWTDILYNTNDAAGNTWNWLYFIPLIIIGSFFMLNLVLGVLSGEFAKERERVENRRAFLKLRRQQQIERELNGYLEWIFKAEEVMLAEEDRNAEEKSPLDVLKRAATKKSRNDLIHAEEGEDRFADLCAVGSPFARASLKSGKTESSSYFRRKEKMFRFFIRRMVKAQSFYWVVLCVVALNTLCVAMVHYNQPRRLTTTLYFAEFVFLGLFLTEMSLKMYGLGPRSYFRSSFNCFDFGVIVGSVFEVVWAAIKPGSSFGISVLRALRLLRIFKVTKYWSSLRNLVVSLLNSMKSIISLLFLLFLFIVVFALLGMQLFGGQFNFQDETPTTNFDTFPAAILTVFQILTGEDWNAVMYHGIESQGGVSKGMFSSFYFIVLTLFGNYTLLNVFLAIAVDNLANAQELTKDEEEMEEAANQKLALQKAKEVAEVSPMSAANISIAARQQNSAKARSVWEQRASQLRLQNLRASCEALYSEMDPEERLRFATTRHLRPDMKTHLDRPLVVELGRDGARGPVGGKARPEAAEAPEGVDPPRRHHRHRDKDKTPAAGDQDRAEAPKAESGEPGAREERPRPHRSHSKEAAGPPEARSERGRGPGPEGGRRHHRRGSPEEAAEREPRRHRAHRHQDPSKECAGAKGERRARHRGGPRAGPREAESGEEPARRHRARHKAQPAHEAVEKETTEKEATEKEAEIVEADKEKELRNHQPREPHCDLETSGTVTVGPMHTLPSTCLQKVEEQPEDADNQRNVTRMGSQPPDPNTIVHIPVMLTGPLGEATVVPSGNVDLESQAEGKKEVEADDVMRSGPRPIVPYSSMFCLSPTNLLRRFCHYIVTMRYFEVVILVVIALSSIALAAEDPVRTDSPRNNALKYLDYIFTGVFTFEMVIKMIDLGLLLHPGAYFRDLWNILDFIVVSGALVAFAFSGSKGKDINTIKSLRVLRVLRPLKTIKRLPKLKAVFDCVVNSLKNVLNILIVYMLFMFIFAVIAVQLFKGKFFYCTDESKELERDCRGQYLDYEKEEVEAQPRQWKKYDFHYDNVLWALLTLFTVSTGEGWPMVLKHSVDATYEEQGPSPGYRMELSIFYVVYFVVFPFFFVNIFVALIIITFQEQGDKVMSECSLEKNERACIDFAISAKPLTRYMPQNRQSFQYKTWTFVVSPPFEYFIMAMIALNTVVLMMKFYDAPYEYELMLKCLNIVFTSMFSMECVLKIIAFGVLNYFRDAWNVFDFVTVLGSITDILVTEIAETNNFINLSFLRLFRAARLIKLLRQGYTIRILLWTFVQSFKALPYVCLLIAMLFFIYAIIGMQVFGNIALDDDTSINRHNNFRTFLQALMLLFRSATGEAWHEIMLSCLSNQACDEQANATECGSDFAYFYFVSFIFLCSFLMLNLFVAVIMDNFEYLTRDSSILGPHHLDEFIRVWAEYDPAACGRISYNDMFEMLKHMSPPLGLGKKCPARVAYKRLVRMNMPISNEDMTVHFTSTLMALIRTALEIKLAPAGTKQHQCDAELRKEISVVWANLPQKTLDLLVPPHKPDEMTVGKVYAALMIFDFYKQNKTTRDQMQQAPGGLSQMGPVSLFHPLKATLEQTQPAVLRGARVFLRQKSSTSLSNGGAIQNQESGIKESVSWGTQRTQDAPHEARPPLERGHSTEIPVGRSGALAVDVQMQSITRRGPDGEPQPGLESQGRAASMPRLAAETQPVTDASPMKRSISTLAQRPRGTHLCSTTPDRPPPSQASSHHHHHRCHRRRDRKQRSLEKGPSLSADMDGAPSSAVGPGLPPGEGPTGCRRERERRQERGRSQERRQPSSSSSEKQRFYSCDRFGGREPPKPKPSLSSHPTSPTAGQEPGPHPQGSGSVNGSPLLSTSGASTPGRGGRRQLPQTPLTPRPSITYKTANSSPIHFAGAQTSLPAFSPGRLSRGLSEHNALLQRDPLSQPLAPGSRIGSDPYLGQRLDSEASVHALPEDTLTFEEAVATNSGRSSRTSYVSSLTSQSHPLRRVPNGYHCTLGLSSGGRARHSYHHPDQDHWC
Sequence of Voltage-gated N-type calcium channel alpha-1B subunit/Amyloid beta A4 precursor protein-binding family A member 1 (Q02410 whole entry): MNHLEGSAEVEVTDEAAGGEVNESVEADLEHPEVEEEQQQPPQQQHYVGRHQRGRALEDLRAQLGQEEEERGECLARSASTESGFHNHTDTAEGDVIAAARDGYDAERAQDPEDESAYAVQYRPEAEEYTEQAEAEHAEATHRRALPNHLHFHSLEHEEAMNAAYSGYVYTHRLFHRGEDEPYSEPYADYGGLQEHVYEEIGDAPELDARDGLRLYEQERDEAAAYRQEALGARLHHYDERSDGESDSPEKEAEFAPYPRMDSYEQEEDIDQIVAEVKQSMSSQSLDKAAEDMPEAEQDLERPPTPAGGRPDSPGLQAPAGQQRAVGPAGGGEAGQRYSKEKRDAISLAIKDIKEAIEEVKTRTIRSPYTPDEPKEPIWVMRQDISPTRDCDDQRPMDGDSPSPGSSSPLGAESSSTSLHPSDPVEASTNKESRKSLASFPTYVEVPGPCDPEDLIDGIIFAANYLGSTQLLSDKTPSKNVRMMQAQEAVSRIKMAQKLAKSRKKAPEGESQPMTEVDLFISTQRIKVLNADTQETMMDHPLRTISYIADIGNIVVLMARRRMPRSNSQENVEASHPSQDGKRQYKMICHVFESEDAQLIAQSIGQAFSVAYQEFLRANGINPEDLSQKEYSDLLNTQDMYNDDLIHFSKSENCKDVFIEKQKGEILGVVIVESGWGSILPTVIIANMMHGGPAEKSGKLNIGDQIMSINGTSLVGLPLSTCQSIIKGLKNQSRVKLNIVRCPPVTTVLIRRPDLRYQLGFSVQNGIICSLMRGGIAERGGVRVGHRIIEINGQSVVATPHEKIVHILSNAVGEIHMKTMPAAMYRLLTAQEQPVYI

## CCCCCCCCCCOC(=O)C[n+]1c(COc2ccccc2C)n(C)c2ccccc21
[1]
  EC50: 0.68 µM (active)
[2]
  IC50: > 20 µM (inactive)

## Oc1nc(Nc2ccccc2)cc2ccccc12
Bcl-2-related protein A1
  IC50: > 100 µM (not active)

## COc1cc(OC)c(-c2c3cc(O)c(=O)cc-3oc3cc(O)c(O)cc23)cc1OC
[3]
  IC50: > 50 µM (not active)
[4]
  AC50: 0.282 µM (active)
[5]
  IC50: > 50 µM (inactive)
